Legend:
Assay in all cases: KINOMEscan
Type in all cases: binding
Settings in all cases: 2000 nM
CHEK2 = molecular target: T1, CHEK2 (Homo sapiens, UniProt O96017)
T1 construct: DNA label (for qPCR read-out); purchased DiscoveRx (KINOMEscan scanMAX service)

ADCK4 = molecular target: T2, ADCK4 (Homo sapiens, UniProt Q96D53)
T2 construct: purchased DiscoveRx (KINOMEscan scanMAX panel, service)

BIKE = molecular target: T3, BIKE (Homo sapiens, UniProt Q9NSY1)
T3 construct: DNA label (qPCR read-out); purchased KINOMEscan scanMAX panel (DiscoveRx)

PRKG2 = molecular target: T4, PRKG2 (Homo sapiens, UniProt Q13237)
T4 construct: purchased DiscoveRx (KINOMEscan scanMAX panel)

EPHA3 = molecular target: T5, EPHA3 (Homo sapiens, UniProt P29320)
T5 construct: purchased DiscoveRx (KINOMEscan scanMAX panel)

PKAC-beta = molecular target: T6, PKAC-beta (Homo sapiens, UniProt P22694)
T6 construct: DNA label (qPCR read-out); purchased KINOMEscan (DiscoveRx) panel

CSNK1A1 = molecular target: T7, CSNK1A1 (Homo sapiens, UniProt P48729)
T7 construct: DNA label (qPCR read-out); purchased DiscoverX (assay service)

FGFR3 = molecular target: T8, FGFR3 (Homo sapiens, UniProt P22607)
T8 construct: purchased DiscoveRx (KINOMEscan scanMAX panel)

ULK1 = molecular target: T9, ULK1 (Homo sapiens, UniProt O75385)
T9 construct: DNA label (for qPCR read-out); purchased DiscoveRx (KINOMEscan scanMAX panel)

MEK6 = molecular target: T10, MEK6 (Homo sapiens, UniProt P52564)
T10 construct: purchased DiscoveRx (KINOMEscan scanMAX panel, service)

ANKK1 = molecular target: T11, ANKK1 (Homo sapiens, UniProt Q8NFD2)
T11 construct: DNA label (qPCR read-out); purchased KINOMEscan scanMAX panel (DiscoveRx)
T11 sequence (Q8NFD2 whole entry): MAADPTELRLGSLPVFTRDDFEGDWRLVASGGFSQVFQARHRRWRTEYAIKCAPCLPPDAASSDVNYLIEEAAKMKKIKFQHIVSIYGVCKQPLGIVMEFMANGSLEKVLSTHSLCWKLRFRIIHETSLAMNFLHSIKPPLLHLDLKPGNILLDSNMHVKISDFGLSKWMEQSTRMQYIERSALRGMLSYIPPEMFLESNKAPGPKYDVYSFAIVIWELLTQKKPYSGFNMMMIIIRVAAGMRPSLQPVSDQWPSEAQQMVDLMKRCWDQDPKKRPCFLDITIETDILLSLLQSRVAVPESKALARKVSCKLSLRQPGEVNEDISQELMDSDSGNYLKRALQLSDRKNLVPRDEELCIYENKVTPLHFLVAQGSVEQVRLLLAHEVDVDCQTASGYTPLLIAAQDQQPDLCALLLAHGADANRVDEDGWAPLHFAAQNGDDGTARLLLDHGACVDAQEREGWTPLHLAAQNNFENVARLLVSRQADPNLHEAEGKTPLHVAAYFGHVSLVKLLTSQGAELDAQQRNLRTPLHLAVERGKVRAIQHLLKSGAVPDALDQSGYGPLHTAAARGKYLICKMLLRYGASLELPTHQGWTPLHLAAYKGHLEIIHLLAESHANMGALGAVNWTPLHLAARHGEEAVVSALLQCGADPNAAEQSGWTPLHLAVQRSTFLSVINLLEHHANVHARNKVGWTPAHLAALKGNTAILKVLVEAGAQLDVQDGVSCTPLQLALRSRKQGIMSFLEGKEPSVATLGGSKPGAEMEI

DYRK1B = molecular target: T12, DYRK1B (Homo sapiens, UniProt Q9Y463)
T12 construct: DNA label (qPCR read-out); purchased KINOMEscan (DiscoveRx) panel

KIT-autoinhibited = molecular target: T13, KIT-autoinhibited (Homo sapiens, UniProt P10721)
T13 construct: purchased KINOMEscan (DiscoveRx) panel service

CAMK2G = molecular target: T14, CAMK2G (Homo sapiens, UniProt Q13555)
T14 construct: DNA label (qPCR read-out); purchased KINOMEscan (ScanMAX panel service)

ITK = molecular target: T15, ITK (Homo sapiens, UniProt Q08881)
T15 construct: DNA label (qPCR read-out); purchased KINOMEscan (DiscoveRx) ScanMAX panel

TESK1 = molecular target: T16, TESK1 (Homo sapiens, UniProt Q15569)
T16 construct: DNA label (for qPCR read-out); purchased DiscoveRx (KINOMEscan scanMAX panel, contract assay)

HIPK2 = molecular target: T17, HIPK2 (Homo sapiens, UniProt Q9H2X6)
T17 construct: DNA label (for qPCR read-out); purchased DiscoveRx (KINOMEscan scanMAX panel, contract assay)

ZAK = ZAK (Homo sapiens, UniProt Q9NYL2)
[1] = molecular target: ABL1(F317L)-nonphosphorylated (Homo sapiens, UniProt P00519, F317L)
CSF1R-autoinhibited = molecular target: T18, CSF1R-autoinhibited (Homo sapiens, UniProt P07333)
T18 construct: DNA label (for qPCR read-out); purchased DiscoveRx (KINOMEscan scanMAX service)

RIPK2 = molecular target: T19, RIPK2 (Homo sapiens, UniProt O43353)
T19 construct: DNA label (qPCR read-out); purchased DiscoveRx (KINOMEscan ScanMAX panel)

PIK3CA(Q546K) = molecular target: T20, PIK3CA(Q546K) (Homo sapiens, UniProt P42336, Q546K)
T20 construct: DNA label; purchased DiscoveRx (KINOMEscan scanMAX panel)
T20 sequence (P42336 whole entry Q546K): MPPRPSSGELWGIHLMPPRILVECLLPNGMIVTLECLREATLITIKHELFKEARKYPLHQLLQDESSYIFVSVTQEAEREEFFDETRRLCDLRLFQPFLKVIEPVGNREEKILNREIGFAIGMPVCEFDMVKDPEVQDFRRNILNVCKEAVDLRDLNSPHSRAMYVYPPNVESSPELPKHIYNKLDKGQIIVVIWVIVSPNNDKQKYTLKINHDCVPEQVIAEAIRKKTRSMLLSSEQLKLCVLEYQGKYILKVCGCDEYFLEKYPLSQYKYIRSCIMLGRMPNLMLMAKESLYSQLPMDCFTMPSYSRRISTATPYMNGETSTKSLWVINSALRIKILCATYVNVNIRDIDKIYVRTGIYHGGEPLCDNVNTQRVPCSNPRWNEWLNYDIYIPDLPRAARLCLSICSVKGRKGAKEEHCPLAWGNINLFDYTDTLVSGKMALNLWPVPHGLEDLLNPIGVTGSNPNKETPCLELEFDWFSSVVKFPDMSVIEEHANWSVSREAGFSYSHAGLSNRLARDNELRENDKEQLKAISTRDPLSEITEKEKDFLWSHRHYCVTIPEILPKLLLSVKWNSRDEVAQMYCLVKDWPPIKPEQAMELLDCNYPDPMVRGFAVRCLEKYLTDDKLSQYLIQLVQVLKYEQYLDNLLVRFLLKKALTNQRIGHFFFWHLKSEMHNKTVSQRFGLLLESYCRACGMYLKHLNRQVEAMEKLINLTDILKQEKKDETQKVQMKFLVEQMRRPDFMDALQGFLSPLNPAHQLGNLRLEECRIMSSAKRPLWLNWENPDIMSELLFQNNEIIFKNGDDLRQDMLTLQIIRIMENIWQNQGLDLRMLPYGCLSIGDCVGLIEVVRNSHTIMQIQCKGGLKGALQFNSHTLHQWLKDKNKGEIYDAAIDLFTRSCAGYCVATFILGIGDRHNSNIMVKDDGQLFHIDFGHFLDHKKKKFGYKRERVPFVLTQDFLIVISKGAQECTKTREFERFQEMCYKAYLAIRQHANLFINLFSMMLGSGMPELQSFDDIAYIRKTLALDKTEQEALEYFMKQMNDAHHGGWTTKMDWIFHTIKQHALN

ARK5 = molecular target: T21, ARK5 (Homo sapiens, UniProt O60285)
T21 construct: DNA label (qPCR read-out); purchased KINOMEscan scanMAX panel (DiscoveRx)

PIK3CA(E545A) = molecular target: T22, PIK3CA(E545A) (Homo sapiens, UniProt P42336, E545A)
T22 construct: DNA label; purchased DiscoveRx (KINOMEscan scanMAX panel)
T22 sequence (P42336 whole entry E545A): as the sequence (P42336 whole entry Q546K) above, with E545A, K546Q counted along it

CIT = molecular target: T23, CIT (Homo sapiens, UniProt O14578)
T23 construct: DNA label (for qPCR read-out); purchased DiscoveRx (KINOMEscan scanMAX service)
T23 sequence (O14578 whole entry): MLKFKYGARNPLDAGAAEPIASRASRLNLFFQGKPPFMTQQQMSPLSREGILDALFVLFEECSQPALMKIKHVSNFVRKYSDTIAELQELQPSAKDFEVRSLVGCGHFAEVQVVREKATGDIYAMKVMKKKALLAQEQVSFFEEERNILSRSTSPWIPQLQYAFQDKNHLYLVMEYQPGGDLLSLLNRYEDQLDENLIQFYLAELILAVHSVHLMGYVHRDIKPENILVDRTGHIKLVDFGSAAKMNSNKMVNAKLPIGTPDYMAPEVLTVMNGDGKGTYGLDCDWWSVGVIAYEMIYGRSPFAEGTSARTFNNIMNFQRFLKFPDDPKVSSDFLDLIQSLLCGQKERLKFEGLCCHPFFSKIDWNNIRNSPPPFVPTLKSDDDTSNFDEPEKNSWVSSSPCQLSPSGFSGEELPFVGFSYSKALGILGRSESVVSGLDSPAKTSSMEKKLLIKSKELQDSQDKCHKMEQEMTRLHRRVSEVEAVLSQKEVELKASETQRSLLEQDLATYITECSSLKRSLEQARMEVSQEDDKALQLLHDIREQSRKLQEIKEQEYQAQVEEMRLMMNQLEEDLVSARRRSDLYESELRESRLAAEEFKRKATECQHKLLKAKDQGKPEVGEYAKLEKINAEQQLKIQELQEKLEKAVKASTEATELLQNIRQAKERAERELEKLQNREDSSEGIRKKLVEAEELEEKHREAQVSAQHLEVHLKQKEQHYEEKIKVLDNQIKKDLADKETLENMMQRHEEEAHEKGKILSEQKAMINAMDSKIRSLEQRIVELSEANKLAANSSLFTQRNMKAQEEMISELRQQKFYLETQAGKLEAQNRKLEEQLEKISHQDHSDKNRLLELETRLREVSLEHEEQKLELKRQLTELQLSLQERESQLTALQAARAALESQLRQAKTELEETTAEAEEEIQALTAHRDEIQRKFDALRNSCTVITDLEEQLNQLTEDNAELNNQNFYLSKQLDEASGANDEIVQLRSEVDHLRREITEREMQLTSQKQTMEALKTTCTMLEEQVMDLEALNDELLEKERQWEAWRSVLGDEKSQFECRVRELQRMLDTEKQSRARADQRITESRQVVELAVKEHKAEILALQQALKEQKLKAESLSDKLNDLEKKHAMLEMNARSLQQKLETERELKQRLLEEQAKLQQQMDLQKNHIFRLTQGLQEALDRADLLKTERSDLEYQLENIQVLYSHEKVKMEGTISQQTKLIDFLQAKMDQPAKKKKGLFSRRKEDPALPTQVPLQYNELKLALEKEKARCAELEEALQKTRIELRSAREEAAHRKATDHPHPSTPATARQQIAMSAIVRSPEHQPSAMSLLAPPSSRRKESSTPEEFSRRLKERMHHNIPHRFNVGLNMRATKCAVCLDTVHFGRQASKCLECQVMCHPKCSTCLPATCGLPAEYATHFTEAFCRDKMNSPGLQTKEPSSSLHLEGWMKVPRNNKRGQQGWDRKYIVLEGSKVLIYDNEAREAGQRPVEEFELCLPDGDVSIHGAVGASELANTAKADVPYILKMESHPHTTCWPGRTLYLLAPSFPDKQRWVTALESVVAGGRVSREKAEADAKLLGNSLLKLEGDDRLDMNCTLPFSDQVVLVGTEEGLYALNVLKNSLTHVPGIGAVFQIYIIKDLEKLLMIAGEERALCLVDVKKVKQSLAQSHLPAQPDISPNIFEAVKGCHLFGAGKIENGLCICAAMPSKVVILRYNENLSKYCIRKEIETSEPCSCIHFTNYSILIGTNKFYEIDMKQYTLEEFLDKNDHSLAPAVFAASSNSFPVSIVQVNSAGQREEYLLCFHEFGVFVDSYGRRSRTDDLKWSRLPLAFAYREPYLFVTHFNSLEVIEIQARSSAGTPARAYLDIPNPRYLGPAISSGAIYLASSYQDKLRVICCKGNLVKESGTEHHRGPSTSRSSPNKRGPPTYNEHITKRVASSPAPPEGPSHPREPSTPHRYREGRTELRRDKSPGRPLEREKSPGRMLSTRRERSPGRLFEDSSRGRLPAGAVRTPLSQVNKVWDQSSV

MST1 = molecular target: T24, MST1 (Homo sapiens, UniProt Q13043)
T24 construct: DNA label (qPCR read-out); purchased KINOMEscan scanMAX panel (DiscoveRx)

TRKA = molecular target: T25, TRKA (Homo sapiens, UniProt P04629)
T25 construct: DNA label (qPCR read-out); purchased KINOMEscan (DiscoveRx) ScanMAX panel

MEK4 = molecular target: T26, MEK4 (Homo sapiens, UniProt P45985)
T26 construct: purchased DiscoveRx (KINOMEscan scanMAX panel, service)

MRCKB = molecular target: T27, MRCKB (Homo sapiens, UniProt Q9Y5S2)
T27 construct: DNA label (qPCR read-out); purchased KINOMEscan scanMAX panel (DiscoveRx)

KIT (D816H) = molecular target: T28, KIT (D816H) (Homo sapiens, UniProt P10721, D816H)
T28 construct: DNA label (for qPCR read-out); purchased DiscoveRx (KINOMEscan scanMAX panel)

MAST1 = molecular target: T29, MAST1 (Homo sapiens, UniProt Q9Y2H9)
T29 construct: purchased DiscoveRx (KINOMEscan scanMAX panel, service)

DMPK2 = molecular target: T30, DMPK2 (Homo sapiens, UniProt Q6DT37)
T30 construct: DNA label (qPCR read-out); purchased KINOMEscan (DiscoveRx) panel

PIK3CA(E542K) = molecular target: T31, PIK3CA(E542K) (Homo sapiens, UniProt P42336, E542K)
T31 construct: DNA label; purchased DiscoveRx (KINOMEscan scanMAX panel)
T31 sequence (P42336 whole entry E542K): as the sequence (P42336 whole entry Q546K) above, with E542K, K546Q counted along it

LATS1 = molecular target: T32, LATS1 (Homo sapiens, UniProt O95835)
T32 construct: purchased KINOMEscan (DiscoveRx) panel service

SNRK = molecular target: T33, SNRK (Homo sapiens, UniProt Q9NRH2)
T33 construct: purchased KINOMEscan (DiscoveRx)

FER = molecular target: T34, FER (Homo sapiens, UniProt P16591)
T34 construct: DNA label (qPCR read-out); purchased DiscoveRx (KINOMEscan ScanMAX panel)

T2 sequence (Q96D53 whole entry): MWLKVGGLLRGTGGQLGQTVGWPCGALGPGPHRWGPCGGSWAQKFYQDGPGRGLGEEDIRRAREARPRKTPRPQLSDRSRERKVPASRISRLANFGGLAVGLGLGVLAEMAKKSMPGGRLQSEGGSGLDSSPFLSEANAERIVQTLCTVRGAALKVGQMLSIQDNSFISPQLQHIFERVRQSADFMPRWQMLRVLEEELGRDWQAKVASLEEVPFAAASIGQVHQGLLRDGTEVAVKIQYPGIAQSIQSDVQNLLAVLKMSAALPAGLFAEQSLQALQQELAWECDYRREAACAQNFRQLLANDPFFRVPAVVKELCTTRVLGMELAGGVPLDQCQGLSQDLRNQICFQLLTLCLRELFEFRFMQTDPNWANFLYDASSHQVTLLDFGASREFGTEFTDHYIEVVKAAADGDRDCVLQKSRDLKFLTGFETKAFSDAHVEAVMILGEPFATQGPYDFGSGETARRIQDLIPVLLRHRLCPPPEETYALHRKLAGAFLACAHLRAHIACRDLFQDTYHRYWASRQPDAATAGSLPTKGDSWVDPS
T1 sequence (O96017 whole entry): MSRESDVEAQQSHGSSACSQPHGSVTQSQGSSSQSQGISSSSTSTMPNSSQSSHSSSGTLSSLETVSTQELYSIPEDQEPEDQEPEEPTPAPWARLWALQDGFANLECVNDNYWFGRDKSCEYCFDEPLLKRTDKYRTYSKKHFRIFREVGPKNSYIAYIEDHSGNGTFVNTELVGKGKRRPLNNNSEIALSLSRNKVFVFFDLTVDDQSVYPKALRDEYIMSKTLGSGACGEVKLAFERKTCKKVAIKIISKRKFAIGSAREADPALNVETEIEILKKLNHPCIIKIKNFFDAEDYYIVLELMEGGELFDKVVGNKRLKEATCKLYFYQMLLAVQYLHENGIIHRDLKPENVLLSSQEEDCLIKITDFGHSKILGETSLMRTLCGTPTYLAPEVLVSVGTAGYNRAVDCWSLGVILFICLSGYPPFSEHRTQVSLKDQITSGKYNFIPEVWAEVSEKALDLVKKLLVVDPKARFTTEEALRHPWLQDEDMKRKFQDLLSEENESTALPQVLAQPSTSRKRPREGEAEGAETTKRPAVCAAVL

[2H]C([2H])([2H])N(C(=O)c1ccc(N2CCCN(c3ccnc4sc(C(N)=O)c(N)c34)CC2)cc1)C([2H])([2H])[2H] [15u_D6, 3-amino-4-(4-(4-(bis(methyl-d3)carbamoyl)phenyl)-1,4-diazepan-1-yl)thieno[2,3-b]pyridine-2-carboxamide]
% Ctrl (CHEK2): 92 % Ctrl | % Ctrl (ADCK4): 83 % Ctrl | % Ctrl (BIKE): 96 % Ctrl | % Ctrl (PRKG2): 90 % Ctrl | % Ctrl (EPHA3): 87 % Ctrl | % Ctrl (PKAC-beta): 100 % Ctrl | % Ctrl (CSNK1A1): 12 % Ctrl | % Ctrl (FGFR3): 99 % Ctrl | % Ctrl (ULK1): 72 % Ctrl | % Ctrl (MEK6): 96 % Ctrl | % Ctrl (ANKK1): 91 % Ctrl | % Ctrl (DYRK1B): 100 % Ctrl | % Ctrl (KIT-autoinhibited): 90 % Ctrl | % Ctrl (CAMK2G): 100 % Ctrl | % Ctrl (ITK): 87 % Ctrl | % Ctrl (TESK1): 100 % Ctrl | % Ctrl (HIPK2): 81 % Ctrl | % Ctrl (ZAK): 100 % Ctrl | % Ctrl [1]: 100 % Ctrl | % Ctrl (CSF1R-autoinhibited): 83 % Ctrl | % Ctrl (RIPK2): 93 % Ctrl | % Ctrl (PIK3CA(Q546K)): 72 % Ctrl | % Ctrl (ARK5): 77 % Ctrl | % Ctrl (PIK3CA(E545A)): 92 % Ctrl | % Ctrl (CIT): 65 % Ctrl | % Ctrl (MST1): 98 % Ctrl | % Ctrl (TRKA): 78 % Ctrl | % Ctrl (MEK4): 74 % Ctrl | % Ctrl (MRCKB): 100 % Ctrl | % Ctrl (KIT (D816H)): 66 % Ctrl | % Ctrl (MAST1): 92 % Ctrl | % Ctrl (DMPK2): 94 % Ctrl | % Ctrl (PIK3CA(E542K)): 74 % Ctrl | % Ctrl (LATS1): 97 % Ctrl | % Ctrl (SNRK): 75 % Ctrl | % Ctrl (FER): 100 % Ctrl

CN(C)C(=O)c1ccc(N2CCCN(c3ccnc4sc(C(N)=O)c(N)c34)CC2)cc1 [15u, 3-amino-4-(4-(4-(dimethylcarbamoyl)phenyl)-1,4-diazepan-1-yl)thieno[2,3-b]pyridine-2-carboxamide]
% Ctrl (CHEK2): 92 % Ctrl | % Ctrl (ADCK4): 95 % Ctrl | % Ctrl (BIKE): 100 % Ctrl | % Ctrl (PRKG2): 98 % Ctrl | % Ctrl (EPHA3): 100 % Ctrl | % Ctrl (PKAC-beta): 83 % Ctrl | % Ctrl (CSNK1A1): 33 % Ctrl | % Ctrl (FGFR3): 98 % Ctrl | % Ctrl (ULK1): 96 % Ctrl | % Ctrl (MEK6): 100 % Ctrl | % Ctrl (ANKK1): 100 % Ctrl | % Ctrl (DYRK1B): 69 % Ctrl | % Ctrl (KIT-autoinhibited): 90 % Ctrl | % Ctrl (CAMK2G): 100 % Ctrl | % Ctrl (ITK): 88 % Ctrl | % Ctrl (TESK1): 83 % Ctrl | % Ctrl (HIPK2): 100 % Ctrl | % Ctrl (ZAK): 94 % Ctrl | % Ctrl [1]: 99 % Ctrl | % Ctrl (CSF1R-autoinhibited): 88 % Ctrl | % Ctrl (RIPK2): 100 % Ctrl | % Ctrl (PIK3CA(Q546K)): 66 % Ctrl | % Ctrl (ARK5): 57 % Ctrl | % Ctrl (PIK3CA(E545A)): 100 % Ctrl | % Ctrl (CIT): 51 % Ctrl | % Ctrl (MST1): 100 % Ctrl | % Ctrl (TRKA): 93 % Ctrl | % Ctrl (MEK4): 69 % Ctrl | % Ctrl (MRCKB): 96 % Ctrl | % Ctrl (KIT (D816H)): 91 % Ctrl | % Ctrl (MAST1): 92 % Ctrl | % Ctrl (DMPK2): 93 % Ctrl | % Ctrl (PIK3CA(E542K)): 92 % Ctrl | % Ctrl (LATS1): 89 % Ctrl | % Ctrl (SNRK): 100 % Ctrl | % Ctrl (FER): 99 % Ctrl
